# Measurements as given in patent US20110166078A1, “OLIGOSACCHARIDE COMPOUNDS FOR USE IN MOBILISING STEM CELLS” (ENDOTIS PHARMA, priority 2008, published 2011).
# How the values were obtained:
# PDGF-β = PDGF-β (Homo sapiens, UniProt P01127); test: PDGF-β/heparin competition assay by SPR (Biacore); format: binding; settings: 10 nM PDGF-β, biotinylated heparin, Sensorchip C1
# Protocol: (§1) Heparin or low molecular weight heparin (6 kDa) from SIGMA were biotinylated at the reducing end and immobilized on a Biacore sensorchip. Different concentrations of the compounds of the present invention were co-incubated at a fixed concentration of targets: FGF-2, PDGF-β, VEGF-A or SDF-1α for 30 minutes. The mixture was then injected onto the streptavidin control (control reference) and HP surfaces. Only free growth factor (GF) or chemokine, i.e. the target molecules not bound to compounds of the present invention, were trapped on the heparin surface. From the binding of free targets on heparin, the percentages of inhibition were calculated and then reported in function of compound concentrations. The plot was fitted with a four-parameter model and IC50 was calculated. The 0% inhibition value was obtained for the injection of the studied target in running-buffer, and the 100% inhibition value was obtained for the injection of the studied target co-incubated with 10 μM of low molecular weight heparin 6 kDa. A PDGF-β/heparin competition assay using the Biacore technology was performed using the following conditions: 10 nM PDGF-β, biotinylated heparin, Reference Streptavidin, Sensorchip C1, HBS-P, Regeneration NaCl 2M. IC50 values of compounds of the present invention were determined using the Biacore technology for the growth factor and chemokine/heparin competition assays that contained the following proteins: VEGF-A, SDF-1α, FGF-2 and PDGF-β.
# VEGF-A = target: T1, VEGF-A (Homo sapiens, UniProt P15692); test: VEGF-A/heparin competition assay by SPR (Biacore); format: binding; settings: 10 nM VEGF-A, biotinylated low molecular weight heparin, Sensorchip SA
# T1 sequence (P15692 27-191 isoform P15692-4): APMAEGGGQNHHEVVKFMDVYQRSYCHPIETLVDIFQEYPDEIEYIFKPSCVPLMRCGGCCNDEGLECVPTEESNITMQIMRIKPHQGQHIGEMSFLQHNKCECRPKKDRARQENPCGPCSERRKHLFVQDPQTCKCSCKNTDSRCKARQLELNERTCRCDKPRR
# Protocol: as §1, with “kDa.” for “kDa. A PDGF-β/heparin competition assay using the Biacore technology was performed using the following conditions: 10 nM PDGF-β, biotinylated heparin, Reference Streptavidin, Sensorchip C1, HBS-P, Regeneration NaCl 2M. IC50 values of compounds of the present invention were determined using the Biacore technology for the growth factor and chemokine/heparin competition assays that contained the following proteins: VEGF-A, SDF-1α, FGF-2 and PDGF-β.”
# A VEGF-A/heparin competition assay using the Biacore technology was performed using the following conditions: 10 nM VEGF-A, biotinylated low molecular weight heparin, Reference Streptavidin, Sensorchip SA, HBS-P, Regeneration NaCl 2M.
# (§2) IC50 values of compounds of the present invention were determined using the Biacore technology for the growth factor and chemokine/heparin competition assays that contained the following proteins: VEGF-A, SDF-1α, FGF-2 and PDGF-β.
# FGF-2 = FGF-2 (Homo sapiens, UniProt P09038); test: FGF-2/heparin competition assay by SPR (Biacore); format: binding; settings: 10 nM FGF-2, biotinylated heparin, Sensorchip C1
# Protocol: as §1, with “kDa.” for “kDa. A PDGF-β/heparin competition assay using the Biacore technology was performed using the following conditions: 10 nM PDGF-β, biotinylated heparin, Reference Streptavidin, Sensorchip C1, HBS-P, Regeneration NaCl 2M. IC50 values of compounds of the present invention were determined using the Biacore technology for the growth factor and chemokine/heparin competition assays that contained the following proteins: VEGF-A, SDF-1α, FGF-2 and PDGF-β.”
# A FGF-2/heparin competition assay using the Biacore technology was performed in the following conditions: 10 nM FGF-2, biotinylated heparin, Reference Streptavidin, Sensorchip C1, PBS-T 0.02%, Regeneration NaCl 2M
# as §2
# SDF-1α = SDF-1α (Homo sapiens, UniProt P48061); test: SDF-1α/heparin competition assay by SPR (Biacore); format: binding; settings: 96 nM SDF-1α, biotinylated low molecular weight heparin (6 kDa), Sensorchip SA
# Protocol: as §1, with “kDa.” for “kDa. A PDGF-β/heparin competition assay using the Biacore technology was performed using the following conditions: 10 nM PDGF-β, biotinylated heparin, Reference Streptavidin, Sensorchip C1, HBS-P, Regeneration NaCl 2M. IC50 values of compounds of the present invention were determined using the Biacore technology for the growth factor and chemokine/heparin competition assays that contained the following proteins: VEGF-A, SDF-1α, FGF-2 and PDGF-β.”
# A SDF-1α/heparin competition assay using the Biacore technology was performed using the following conditions: 96 nM SDF-1α, biotinylated low molecular weight heparin (6 kDa), Reference Streptavidin, Sensorchip SA, HBS-P, Regeneration NaCl 2M
# as §2
# [1] = system: control and VEGF-A-stimulated angiogenesis (endothelial tubules, HUVEC/NHDF co-culture); test: In vitro angiogenesis assay (endothelial tubule formation, AngioKit); format: cell-based, human; settings: 30 μM compound; anti-CD31 ELISA and AngioSys image analysis; FIGS. 13-15
# Description: These experiments are also known as endothelial tubule formation assays and they are used to evaluate the compound effects on in vitro angiogenesis (the neo-formation of blood vessels from pre-existing ones). This process is critical in tumour development as bloodstream brings all the necessary nutrients and oxygen to cancer cells.
# The assay uses a commercially available product (AngioKit) specially designed for screening experiments. The product consists of a 24 or 96-well culture plate containing endothelial and fibroblast cells. A similar assay has been developed “in-house” using 48-well culture plates.
# Endothelial cells will, on a ten-day period, develop into a branched network of endothelial tubules or “primitive” blood vessels. This process requires a co-culture with fibroblasts, these latter cells secreting essential growth factors for endothelial cells. At the end of the incubation period (about ten days), angiogenesis is monitored both by ELISA and image analysis software quantifying different blood vessel parameters (number and average length of tubules, field area, number of junctions for example). All reagents and material (except the oligosaccharide compounds, the VEGF-A and the 48-well plate AngioKits) are bought from TCS CellWorks (http://www.tcscellworks.co.uk) which provides: • 24 and 96-well plate AngioKits (including culture medium) • Anti-CD31 (a cell marker specifically expressed on endothelial cells) reagents for ELISA and tubule staining procedures. • AngioSys image analysis software
# For home-made 48-well plate AngioKits, NHDF and HUVEC cells were independently purchased while TCS CellWorks culture medium and protocol were used.
# The cell medium is replaced with fresh one (day 1) and cells are incubated at 37° C. with the compounds of interest (oligosaccharides and/or angiogenic proteins, such as growth factors). During the course of the experiment, the culture medium (including oligosaccharides and/or angiogenic proteins) is replaced at days 4 and 7.
# At day 10, the assay is terminated by the labelling of endothelial cells by an ELISA procedure (indirect colorimetric titration of the endothelial cell number through dosage of the endothelial-specific CD31 marker) and the staining of endothelial tubules. Photographs of stained tubules are taken and analysed with the AngioSys image analysis software.
# In the following assay the effects of compounds 239, 240, 246, 247, 248, 249, 252, 254, 255 and 257 on in vitro angiogenesis were measured (all compounds were added at the 30 μM concentration). […] For the data presented in FIG. 13, AngioSys image analyses are shown on FIG. 14. Photographs of endothelial tubules are shown on the side of the anti-CD31 ELISA (see FIGS. 13 and 15).
SMILES,IC50 (PDGF-β) [nM],IC50 (VEGF-A) [nM],IC50 (FGF-2) [nM],IC50 (SDF-1α) [nM],inhibition of control and/or VEGF-A-stimulated angiogenesis [1]
C#CCCCOC1OC(COS(=O)(=O)O)C(OC2OC(C(=O)O)C(OC3OC(COS(=O)(=O)O)C(OC4OC(C(=O)O)C(OCc5ccccc5)C(OCc5ccccc5)C4OS(=O)(=O)O)C(OCc4ccccc4)C3NS(=O)(=O)O)C(OCc3ccccc3)C2OS(=O)(=O)O)C(OCc2ccccc2)C1NS(=O)(=O)O (stereo not shown) [Compound 236],1350,310,187,3600,
C#CCCCOC1OC(COS(=O)(=O)[O-])C(OC2OC(C(=O)[O-])C(OC3OC(COS(=O)(=O)[O-])C(OC4OC(C(=O)[O-])C(OC5OC(COS(=O)(=O)[O-])C(OC6OC(C(=O)[O-])C(OCc7ccccc7)C(OCc7ccccc7)C6OS(=O)(=O)[O-])C(OCc6ccccc6)C5NS(=O)(=O)[O-])C(OCc5ccccc5)C4OS(=O)(=O)[O-])C(OCc4ccccc4)C3NS(=O)(=O)[O-])C(OCc3ccccc3)C2OS(=O)(=O)[O-])C(OC)C1NS(=O)(=O)[O-].[Na+].[Na+].[Na+].[Na+].[Na+].[Na+].[Na+].[Na+].[Na+].[Na+].[Na+].[Na+] (stereo not shown) [Compound 249],225,,136,,inhibition of control and/or VEGF-A-stimulated angiogenesis
C#CCCCOC1OC(COS(=O)(=O)[O-])C(OC2OC(C(=O)[O-])C(OC3OC(COS(=O)(=O)[O-])C(OC4OC(C(=O)[O-])C(OC5OC(COS(=O)(=O)[O-])C(OC6OC(C(=O)[O-])C(OCc7ccccc7)C(OCc7ccccc7)C6OS(=O)(=O)[O-])C(OC)C5NS(=O)(=O)[O-])C(OCc5ccccc5)C4OS(=O)(=O)[O-])C(OC)C3NS(=O)(=O)[O-])C(OCc3ccccc3)C2OS(=O)(=O)[O-])C(OC)C1NS(=O)(=O)[O-].[Na+].[Na+].[Na+].[Na+].[Na+].[Na+].[Na+].[Na+].[Na+].[Na+].[Na+].[Na+] (stereo not shown) [Compound 246],194,59,167,865,inhibition of control and/or VEGF-A-stimulated angiogenesis
C#CCCCOC1OC(COS(=O)(=O)[O-])C(OC2OC(C(=O)[O-])C(OC3OC(COS(=O)(=O)[O-])C(OC4OC(C(=O)[O-])C(OC5OC(COS(=O)(=O)[O-])C(OC6OC(C(=O)[O-])C(OCc7ccccc7)C(OCc7ccccc7)C6OS(=O)(=O)[O-])C(OCc6ccccc6)C5NS(=O)(=O)[O-])C(OC)C4OS(=O)(=O)[O-])C(OC)C3NS(=O)(=O)[O-])C(OCc3ccccc3)C2OS(=O)(=O)[O-])C(OCc2ccccc2)C1NS(=O)(=O)[O-].[Na+].[Na+].[Na+].[Na+].[Na+].[Na+].[Na+].[Na+].[Na+].[Na+].[Na+].[Na+] (stereo not shown) [Compound 252],171,,121,,inhibition of control and/or VEGF-A-stimulated angiogenesis
C#CCCCOC1OC(COS(=O)(=O)[O-])C(OC2OC(C(=O)[O-])C(OC3OC(COS(=O)(=O)[O-])C(OC4OC(C(=O)[O-])C(OC5OC(COS(=O)(=O)[O-])C(OC6OC(C(=O)[O-])C(OC)C(OC)C6OS(=O)(=O)[O-])C(OCc6ccccc6)C5NS(=O)(=O)[O-])C(OC)C4OS(=O)(=O)[O-])C(OCc4ccccc4)C3NS(=O)(=O)[O-])C(OC)C2OS(=O)(=O)[O-])C(OCc2ccccc2)C1NS(=O)(=O)[O-].[Na+].[Na+].[Na+].[Na+].[Na+].[Na+].[Na+].[Na+].[Na+].[Na+].[Na+].[Na+] (stereo not shown) [Compound 247],1690,45,> 100000,430,inhibition of control and/or VEGF-A-stimulated angiogenesis
C#CCCCOC1OC(COS(=O)(=O)[O-])C(OC2OC(C(=O)[O-])C(OC3OC(COS(=O)(=O)[O-])C(OC4OC(C(=O)[O-])C(OC5OC(COS(=O)(=O)[O-])C(OC6OC(C(=O)[O-])C(OC)C(OC)C6OS(=O)(=O)[O-])C(OC)C5NS(=O)(=O)[O-])C(OC)C4OS(=O)(=O)[O-])C(OC)C3NS(=O)(=O)[O-])C(OC)C2OS(=O)(=O)[O-])C(OC)C1NS(=O)(=O)[O-].[Na+].[Na+].[Na+].[Na+].[Na+].[Na+].[Na+].[Na+].[Na+].[Na+].[Na+].[Na+] (stereo not shown) [Compound 248],28000,1670,1660,22600,inhibition of control and/or VEGF-A-stimulated angiogenesis
C#CCCCOC1OC(COS(=O)(=O)[O-])C(OC2OC(C(=O)[O-])C(OC3OC(COS(=O)(=O)[O-])C(OC4OC(C(=O)[O-])C(OC5OC(COS(=O)(=O)[O-])C(OC6OC(C(=O)[O-])C(OCc7ccccc7)C(OCc7ccccc7)C6OS(=O)(=O)[O-])C(OCc6ccccc6)C5NS(=O)(=O)[O-])C(OCc5ccccc5)C4OS(=O)(=O)[O-])C(OC)C3NS(=O)(=O)[O-])C(OC)C2OS(=O)(=O)[O-])C(OC)C1NS(=O)(=O)[O-].[Na+].[Na+].[Na+].[Na+].[Na+].[Na+].[Na+].[Na+].[Na+].[Na+].[Na+].[Na+] (stereo not shown) [Compound 255],122,,36,,inhibition of control and/or VEGF-A-stimulated angiogenesis
